Tests used:
TNAP = molecular target: T1, TNAP (Homo sapiens, UniProt P05186); test: TNAP stability assay: hydrolysis by TNAP; type: in vitro ADME; conditions: 1 h, pH 9, 100 μM (data not shown)
T1 sequence (P05186 18-502 limits assumed): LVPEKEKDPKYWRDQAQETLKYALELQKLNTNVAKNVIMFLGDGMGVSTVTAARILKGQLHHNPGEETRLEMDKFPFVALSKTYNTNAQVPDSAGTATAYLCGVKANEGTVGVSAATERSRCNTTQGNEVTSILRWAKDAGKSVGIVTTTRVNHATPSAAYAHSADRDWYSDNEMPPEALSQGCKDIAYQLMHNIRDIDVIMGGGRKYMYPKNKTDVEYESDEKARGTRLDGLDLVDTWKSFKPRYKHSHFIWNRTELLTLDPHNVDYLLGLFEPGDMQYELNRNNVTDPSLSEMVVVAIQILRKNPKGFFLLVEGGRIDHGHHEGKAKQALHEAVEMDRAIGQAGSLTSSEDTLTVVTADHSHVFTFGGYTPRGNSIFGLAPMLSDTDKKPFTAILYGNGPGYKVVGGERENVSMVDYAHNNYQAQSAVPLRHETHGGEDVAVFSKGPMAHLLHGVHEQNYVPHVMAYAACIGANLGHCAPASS

P2Y1 receptor = P2Y1 receptor (Homo sapiens, UniProt P47900); test: [Ca2+]i elevation in 1321N1 astrocytoma cells expressing GFP-P2Y1 receptor; type: cell-based; conditions: EC50 of the nucleotide in relation to the EC50 of ATP
P2Y1 receptor, sequence (P47900 whole entry): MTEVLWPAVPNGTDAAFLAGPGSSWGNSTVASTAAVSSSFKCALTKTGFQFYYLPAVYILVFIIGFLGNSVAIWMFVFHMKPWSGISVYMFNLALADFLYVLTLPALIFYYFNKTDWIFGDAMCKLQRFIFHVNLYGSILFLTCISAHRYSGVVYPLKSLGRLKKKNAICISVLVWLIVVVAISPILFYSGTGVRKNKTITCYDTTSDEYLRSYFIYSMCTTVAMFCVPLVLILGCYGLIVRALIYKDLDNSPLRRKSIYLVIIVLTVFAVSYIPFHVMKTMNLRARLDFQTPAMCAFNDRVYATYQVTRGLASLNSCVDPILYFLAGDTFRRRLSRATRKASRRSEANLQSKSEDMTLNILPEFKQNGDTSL

Compound: Nc1ncnc2c1ncn2[C@@H]1O[C@H](COP(=O)(O)OP(=O)(O)OP(=O)(O)O)[C@@H](O)[C@H]1O [ATP, reference compound]
- hydrolysis by TNAP (TNAP): 100%
- increase in efficacy vs ATP, P2Y1 (P2Y1 receptor): 1
